SMILES strings stand for the structures. Structures can show the parent of a compound that is named as a salt. Bounds are passed on as bounds.

The target in the experiment is full-length human PRMT8 isoform 1 (Homo sapiens, UniProt Q9NR22). The experiment can be described thus: PRMT8 biochemical assay (3H-SAM Flashplate, histone H4 31-45 peptide). To be noted: 1.5 nM PRMT8, 30 min preincubation, 150 nM peptide. The source says: S-adenosylmethionine (SAM), S-adenosylhomocysteine (SAH), bicine, Tween20, dimethylsulfoxide (DMSO), bovine skin gelatin (BSG), isopropyl-β-D-thiogalactopyranoside (IPTG), and Tris(2-carboxyethyl)phosphine hydrochloride solution (TCEP) were purchased from Sigma-Aldrich at the highest level of purity possible. ^3H-SAM was purchase from American Radiolabeled Chemicals with a specific activity of 80 Ci/mmol. 384-well streptavidin Flashplates were purchased from PerkinElmer.
full-length human PRMT8 isoform 1, sequence (Q9NR22 whole entry, the tested form may be a part, canonical isoform): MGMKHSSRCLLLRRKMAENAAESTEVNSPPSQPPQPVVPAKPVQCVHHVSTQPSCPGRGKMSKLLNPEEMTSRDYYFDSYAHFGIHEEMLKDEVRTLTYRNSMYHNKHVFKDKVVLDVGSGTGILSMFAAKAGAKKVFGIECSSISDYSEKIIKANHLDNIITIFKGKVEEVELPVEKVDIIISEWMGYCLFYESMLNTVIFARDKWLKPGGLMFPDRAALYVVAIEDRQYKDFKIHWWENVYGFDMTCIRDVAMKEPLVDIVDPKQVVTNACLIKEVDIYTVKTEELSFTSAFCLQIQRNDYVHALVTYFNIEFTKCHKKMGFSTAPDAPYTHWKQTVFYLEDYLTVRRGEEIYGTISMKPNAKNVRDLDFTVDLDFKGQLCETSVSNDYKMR
Peptide representative of human histone H4 residues 31-45 was synthesized with an N-terminal linker-affinity tag motif and a C-terminal amide cap by 21st Century Biochemicals. The peptide was purified by high-performance liquid chromatography (HPLC) to greater than 95% purity and confirmed by liquid chromatography mass spectrometry (LC-MS). The sequence was Biot-Ahx-[…]-amide (SEQ ID NO.:8).
The resulting construct encodes an N-terminal GST tag and a thrombin cleavage sequence
E. coli (BL21(DE3) Gold, Stratagene) made competent by the CaCl2 method were transformed with the PRMT8 construct and ampicillin selection. Protein over-expression was accomplished by growing the PRMT8 expressing E. coli clone and inducing expression with 0.3 mM IPTG at 16° C. The culture was grown for 12 hours, harvested by centrifugation, and stored at −80° C. for purification.
GST-tagged PRMT8 was eluted with 50 mM Tris, 2 mM glutathione, pH 7.8. Pooled fractions were cleaved by thrombin (10U) and dialysed in buffer A. GST was removed by reloading the cleaved protein sample onto glutathione sepharose column and PRMT8 was collected in the flow-through fractions. PRMT8 was purified further by ceramic hydroxyapatite chromatography. The column was washed with 50 mM phosphate buffer, 100 mM NaCl, 5% glycerol, 5 mM […], pH 7.8 and PRMT8 was eluted by 100 mM phosphate in the same buffer. Protein was concentrated and buffer was exchanged to 50 mM Tris, 300 mM NaCl, 10% glycerol, 5 mM β-mercaptoethanol, pH 7.8 by ultrafiltration. The purity of recovered protein was 89%.
General Procedure for PRMT8 Enzyme Assays on Peptide Substrates.
The assays were all performed in a buffer consisting of 20 mM Bicine (pH=7.6), 1 mM TCEP, 0.005% BSG, and 0.002% Tween 20, prepared on the day of use. Compounds in 100% DMSO (1 ul) were spotted into a polypropylene 384-well V-bottom plates (Greiner) using a Platemate Plus outfitted with a 384-channel head (Thermo Scientific). DMSO (1 ul) was added to Columns 11, 12, 23, 24, rows A-H for the maximum signal control and 1 ul of SAH, a known product and inhibitor of PRMT8, was added to columns 11, 12, 23, 24, rows I-P for the minimum signal control. A cocktail (40 ul) containing the PRMT8 enzyme was added by Multidrop Combi (Thermo-Fisher). The compounds were allowed to incubate with PRMT8 for 30 min at room temperature, then a cocktail (10 ul) containing ^3H-SAM and peptide was added to initiate the reaction (final volume=51 ul). The final concentrations of the components were as follows: PRMT8 was 1.5 nM, ^3H-SAM was 50 nM, non-radiolabeled SAM was 550 nM, peptide was 150 nM, SAH in the minimum signal control wells was 1 mM, and the DMSO concentration was 2%. The assays were stopped by the addition of non-radiolabeled SAM (10 ul) to a final concentration of 400 uM, which dilutes the ^3H-SAM to a level where its incorporation into the peptide substrate is no longer detectable. 50 ul of the reaction in the 384-well polypropylene plate was then transferred to a 384-well Flashplate and the biotinylated peptides were allowed to bind to the streptavidin surface for at least 1 hour before being washed once with 0.1% Tween20 in a Biotek ELx405 plate washer. The plates were then read in a PerkinElmer TopCount plate reader to measure the quantity of ^3H-labeled peptide bound to the Flashplate surface, measured as disintegrations per minute (dpm) or alternatively, referred to as counts per minute (cpm). […]
Consider `CNCCN(C)Cc1c[nH]nc1C1CCC(OCCCOC)C2(CCCC2)C1` (mixture of isomers) [compound 19, N1-((3-(10-(3-methoxypropoxy)spiro[4.5]decan-7-yl)-1H-pyrazol-4-yl)methyl)-N1,N2-dimethylethane-1,2-diamine dihydrochloride], for which 30.1 nM corresponded to half-maximal inhibition (IC50).

For the compound `CNCCN(C)Cc1c[nH]nc1[C@@H]1CC[C@@H](OCCCOC)C2(CCCC2)C1` (racemic) [compound 26, N1-((3-((7R,10R)-10-(3-methoxypropoxy)spiro[4.5]decan-7-yl)-1H-pyrazol-4-yl)methyl)-N1,N2-dimethylethane-1,2-diamine], half-maximal inhibition (IC50) required 67.6 nM.

On to `CNCCN(C)Cc1c[nH]nc1[C@@H]1CC[C@H](OCCCOC)C2(CCCC2)C1` (racemic) [compound 27, N1-((3-((7R,10S)-10-(3-methoxypropoxy)spiro[4.5]decan-7-yl)-1H-pyrazol-4-yl)methyl)-N1,N2-dimethylethane-1,2-diamine], for which the midpoint of inhibition, the IC50, lay at 31.2 nM.

As to `CNCCN(C)Cc1c[nH]nc1C1CC(COCC2CC2)CC(COCC2CC2)C1` (stereo not shown) [compound 2], the IC50 – broadly, the concentration that inhibits the measured activity by half – stood at 365 nM.

Compound `CNCCN(C)Cc1c[nH]nc1[C@H]1CC[C@@]2(CCCCO2)CC1` [compound 3] yielded an IC50 of 32.8 nM.

In turn, `CNCCN(C)Cc1c[nH]nc1[C@H]1CC[C@]2(CCCOC2)CC1` [compound 4, N1-((3-((6s,9s)-2-oxaspiro[5.5]undecan-9-yl)-1H-pyrazol-4-yl)methyl)-N1,N2-dimethylethane-1,2-diamine] gave an IC50 of 16 nM.

Compound `CNCCN(C)Cc1c[nH]nc1[C@H]1CC[C@@]2(CCCOC2)CC1` [compound 5, N1-((3-((6r,9r)-2-oxaspiro[5.5]undecan-9-yl)-1H-pyrazol-4-yl)methyl)-N1,N2-dimethylethane-1,2-diamine] gave a concentration for half-maximal inhibition (IC50) of 17.7 nM.

Compound `CNCCN(C)Cc1c[nH]nc1C1CCC(COCC(C)C)(COCC(C)C)CC1` [compound 6] came in with an IC50 of 62.4 nM.

Turning to `CNCCN(C)Cc1c[nH]nc1C1CCC2(CCC(OC)CC2)CC1` (stereo not shown) [compound 9, N1-((3-(9-methoxyspiro[5.5]undecan-3-yl)-1H-pyrazol-4-yl)methyl)-N1,N2-dimethylethane-1,2-diamine], the half-inhibitory concentration (IC50) was found to be 11.1 nM.

As for `CNCCN(C)Cc1c[nH]nc1[C@H]1CC[C@]2(CCN(CCC(C)C)C2=O)CC1` [compound 10], the IC50 worked out at 106 nM.

`CNCCN(C)Cc1c[nH]nc1[C@H]1CC[C@@]2(CCN(CCC(C)C)C2=O)CC1` [compound 11, (5r,8r)-2-isopentyl-8-(4-((methyl(2-(methylamino)ethyl)amino)methyl)-1H-pyrazol-3-yl)-2-azaspiro[4.5]decan-1-one]: inhibition was half-maximal at 10.2 nM (IC50).

In the case of `CNCCN(C)Cc1c[nH]nc1C1C[C@@H](C(=O)N(C)CC(C)C)C(C)(C)[C@H](C(=O)N(C)CC(C)C)C1` (stereo partly shown) [compound 12], the IC50 is over 10000 nM.

`CNCCN(C)Cc1c[nH]nc1C1C[C@H](C(=O)NCCOC)C(C)(C)[C@H](C(=O)NCCOC)C1` (stereo partly shown) [compound 13] displayed an IC50 of over 10000 nM.

For the compound `CCN(C)C(=O)C1CC(c2n[nH]cc2CN(C)CCNC)CC(C(=O)NCCC(C)C)C1(C)C` (stereo not shown) [compound 14, N1-ethyl-N3-isopentyl-N1,2,2-trimethyl-5-(4-((methyl(2-(methylamino)ethyl)amino)methyl)-1H-pyrazol-3-yl)cyclohexane-1,3-dicarboxamide], the 50% inhibitory concentration (IC50) is over 10000 nM.

On to `CNCCN(C)Cc1c[nH]nc1C1=CCC(CF)(CF)CC1` [compound 15, N-((3-(4,4-bis(fluoromethyl)cyclohex-1-en-1-yl)-1H-pyrazol-4-yl)methyl)-N1,N2-dimethylethane-1,2-diamine], for which the IC50 came to 15.3 nM.

In turn, `CNCCN(C)Cc1c[nH]nc1C1=CCC(COCC(F)(F)F)CC1` (stereo not shown) [compound 16, N1,N2-dimethyl-N1-((3-(4-((2,2,2-trifluoroethoxy)methyl)cyclohex-1-en-1-yl)-1H-pyrazol-4-yl)methyl)ethane-1,2-diamine] returned an IC50 of 26.4 nM.

In turn, `CNCCN(C)Cc1c[nH]nc1C1CCC(C)(C)[C@H](OCC(C)C)C1` (stereo partly drawn) [compound 20, ({3-[(3R)-4,4-dimethyl-3-(2-methylpropoxy)cyclohexyl]-1H-pyrazol-4-yl}methyl)(methyl)[2-(methylamino)ethyl]amine] showed an IC50 of 24.5 nM.

As for `CCC1CC(c2n[nH]cc2CN(C)CCNC)CC(C(=O)NCCOC)C1(C)C` (stereo not shown) [compound 21, 3-ethyl-N-(2-methoxyethyl)-2,2-dimethyl-5-[4-([methyl[2-(methylamino)ethyl]amino]methyl)-1H-pyrazol-3-yl]cyclohexane-1-carboxamide dihydrochloride], the IC50 is 614 nM.

In turn, `CCC1(CC)CC2(CCC(c3n[nH]cc3CN(C)CCNC)CC2)N(C)C1=O` (stereo not shown) [compound 22, 3,3-diethyl-1-methyl-8-(4-((methyl(2-(methylamino)ethyl)amino)methyl)-1H-pyrazol-3-yl)-1-azaspiro[4.5]decan-2-one] came in with an IC50 of 20.3 nM.

Turning to `CNCCN(C)Cc1c[nH]nc1[C@H]1CC[C@@H](COCC(F)(F)F)CC1` [compound 23, N1,N2-dimethyl-N1-((3-((1s,4s)-4-((2,2,2-trifluoroethoxy)methyl)cyclohexyl)-1H-pyrazol-4-yl)methyl)ethane-1,2-diamine], the half-inhibitory concentration (IC50) was determined as 91.8 nM.

Compound `CNCCN(C)Cc1c[nH]nc1[C@H]1CC[C@H](COCC(F)(F)F)CC1` [compound 24, N1,N2-dimethyl-N1-((3-((1r,4r)-4-((2,2,2-trifluoroethoxy)methyl)cyclohexyl)-1H-pyrazol-4-yl)methyl)ethane-1,2-diamine] returned an IC50 of 18.3 nM.

Compound `CNCCN(C)Cc1cn(C)nc1C1CCC(C)(C)[C@@H](C(=O)NCC(C)C)C1` (stereo partly shown) [compound 25] gave an IC50 of 2790 nM.

`CNCCNCc1c[nH]nc1[C@H]1CC[C@@]2(CC1)CC(C)(C)CO2` [compound 28, N1-((3-((5s,8s)-3,3-dimethyl-1-oxaspiro[4.5]decan-8-yl)-1H-pyrazol-4-yl)methyl)-N2-methylethane-1,2-diamine] yielded an IC50 of 20.7 nM.

`CNCCNCc1c[nH]nc1[C@H]1CC[C@]2(CC1)CC(C)(C)CO2` [compound 29, N1-((3-((5r,8r)-3,3-dimethyl-1-oxaspiro[4.5]decan-8-yl)-1H-pyrazol-4-yl)methyl)-N2-methylethane-1,2-diamine] yielded a concentration for half-maximal inhibition (IC50) of 258 nM.

On to `CNCCN(C)Cc1c[nH]nc1C1CCC(C)(C)[C@H](COCCCOC)C1` (stereo partly drawn) [compound 30, {2-[({3-[(3R)-3-[(3-methoxypropoxy)methyl]-4,4-dimethylcyclohexyl]-1H-pyrazol-4-yl}methyl)(methyl)amino]ethyl}(methyl)amine], for which the IC50 is 187 nM.

Consider `CCOC[C@@H]1CC(c2n[nH]cc2CN(C)CCNC)CCC1(C)C` (stereo partly drawn) [compound 31, {2-[({3-[(3R)-3-(ethoxymethyl)-4,4-dimethylcyclohexyl]-1H-pyrazol-4-yl}methyl)(methyl)amino]ethyl}(methyl)amine], for which the IC50 turned out to be 325 nM.

In the case of `CNCCN(C)Cc1c[nH]nc1C1CCC(C)(C)[C@H](CO)C1` (stereo partly drawn) [compound 32, [(1R)-2,2-dimethyl-5-[4-({methyl[2-(methylamino)ethyl]amino}methyl)-1H-pyrazol-3-yl]cyclohexyl]methanol], the IC50 is 291 nM.

`CCC1(CC)C[C@]2(CC[C@H](c3n[nH]cc3CN(C)CCNC)CC2)OC1=O` [compound 33, (5s,8s)-3,3-diethyl-8-(4-((methyl(2-(methylamino)ethyl)amino)methyl)-1H-pyrazol-3-yl)-1-oxaspiro[4.5]decan-2-one] showed a half-maximal inhibitory concentration (IC50) of 95.8 nM.
